Columns and labels:
[1] = batch mode homogeneous catalytic reductive dechlorination of endosulfan in contaminated water, titanium (III) citrate as bulk electron donor; conditions: after 72 hours of reaction, about 0.010 mM catalyst, 0.32 ppm endosulfan initially, room temperature
Protocol: 40 milliliter (0.04 liter) glass vials (usually filled with about 25 milliliters of reaction solution), fitted with Teflon®-clear silicon sealing cups, were used at room temperature (between about 20° C. and about 25° C.) and atmospheric pressure. Contents of each glass vial (batch reactor) were mixed by securing the glass vial onto an orbital shaker (model TS-600, from MRC, Israel) having automatic (mixing) speed control. Multiple replicates of each glass vial (batch reactor) filled with reaction solution were prepared at the beginning of an experiment.
The glass vial batch mode reaction systems were prepared under oxygen free atmosphere conditions, using an anaerobic chamber (Coy Laboratory Products, MI, USA) containing an oxygen free atmosphere composed of a mixture of nitrogen [N2] gas and hydrogen [H2] gas, having a 95/5 molar or partial pressure ratio.
GC/MS was used for monitoring concentration over time, of endosulfan (as α and β isomers) in the endosulfan contaminated water, during the batch mode homogeneous catalytic reactions.
The extracted organic phase was then transferred to a gas chromatograph vial and analyzed for the presence of the endosulfan (as α and β isomers) contaminant.
The reactions were performed at room temperature (between about 20° C. and about 25° C.) and atmospheric pressure.
A volume of 25 milliliter (0.025 liter) was taken from the appropriate stock solution of water contaminated with endosulfan and added to the empty 40 milliliter glass vial (batch reactor), for providing an initial concentration of 0.32 mg endosulfan per liter contaminated water, or 0.32 ppm endosulfan in the contaminated water. This procedure was repeated, for preparing at least two glass vials (batch reactors) for each experiment.
Reducing conditions were not naturally prevalent in the endosulfan contaminated water in the glass vials (batch reactors) for effectively enabling the phenomena, mechanisms, and processes of the electron transfer mediated (homogeneous) catalytic reductive dehalogenation of the endosulfan contaminant in the contaminated water. Thus, reducing conditions in the endosulfan contaminated water were anthropogenically produced by exposing the endosulfan contaminated water to titanium (III) citrate [Ti(OC(CH2COOH)2COOH] as the bulk electron donor or reducing agent, immediately before exposing the endosulfan contaminated water to the catalytically effective amount of each respective above stated metalloporphyrin complex, or metallocorrin complex, electron transfer mediator (homogeneous catalyst).
The pH of the solution was then adjusted to the desired value (e.g., 9.0) by adding small amounts of NaOH concentrated solution to each glass vial (batch reactor).
Then, an appropriate volume was taken from each respective above stated 2 mM metalloporphyrin complex, or metallocorrin complex, stock solution, and added to each glass vial (batch reactor) containing endosulfan contaminated water and titanium (III) citrate, for providing a concentration of about 0.010 mM metalloporphyrin complex, or metallocorrin complex, electron transfer mediator (homogeneous) catalyst in the endosulfan contaminated water. At this point, the glass vials were sealed, and transferred to the orbital shaker.
The contents, i.e., the endosulfan contaminated water containing the titanium (III) citrate as bulk electron donor or reducing agent and the metalloporphyrin complex, or metallocorrin complex, electron transfer mediator (homogeneous) catalyst, in each glass vial (batch reactor), were continuously mixed by securing each glass vial onto the orbital shaker set at a mixing speed of 150 rpm during the entire extent of time or duration of reaction.
For each metalloporphyrin complex, or metallocorrin complex, GC/MS analytical samples were prepared after 72 hours from each of at least two glass vials containing the endosulfan contaminated water of the batch mode homogeneous catalytic reductive dechlorination reaction.

[2] = cited from earlier work
[3] = partitioning (adsorption and desorption) of electron transfer mediators on/off geological matter; assay type: physicochemical; conditions: Bet Dagan soil, room temperature; for Adsorption (%) of (ETM) after 10 days: aqueous mixture; for Desorption (%) of (ETM) after 10 days: fresh water replaced
Protocol: Bet Dagan soil was obtained from the site of the Bet Dagan Agricultural Research Organization campus, Bet Dagan, Israel. The Bet Dagan soil was sieved to a size of 60 mesh, and maintained in a dry air environment until use.
(§1) 40 milliliter (ml) (0.04 liter) glass vials (filled with 10 milliliters, of solution), were used at room temperature (between about 20° C. and about 25° C.) and atmospheric pressure, as the vessel or container, for containing the aqueous mixtures of the (partitioning) electron transfer mediator (ETM)—geological matter (soil or clay).
(§2) Ultraviolet and visible (UV/VIS) absorption spectrometry was used for measuring and determining the quantity (concentration), after a time period of 10 days each of (ETM) adsorption and desorption, of each (partitioning) electron transfer mediator (ETM) in the aqueous (liquid) phase of each respective electron transfer mediator (ETM)—geological matter (soil or clay) aqueous mixture. Multiple samples of the aqueous (liquid) phase of each mixture were taken from each respective glass vial (partitioning vessel).
(§3) The UV/VIS absorption spectrometer was a Varian, Cary 100, operative according to double beam analysis. Concentrations of the [TBSP-Ni], hematoporphyrin-Cobalt, and vitamin B12, electron transfer mediators (ETMs), were measured at absorption wavelengths of 527 nanometers (nm), 413 nanometers (nm), and 548 nanometers (nm), respectively.
(§4) The electron transfer mediator (ETM)—geological matter (soil or clay) partitioning experiments were performed at room temperature (between about 20° C. and about 25° C.) and atmospheric pressure.
(§5) Each prepared 2 mM metalloporphyrin complex, or metallocorrin complex, (ETM) aqueous stock solution, was diluted by a ratio of 1/10 or 1/100 with the distilled deionized filtered water, for forming respective diluted (ETM) stock solutions.
(§6) For each diluted (ETM) stock solution, corresponding to each respective electron transfer mediator (ETM), an amount of each type of geological matter, i.e., Bet Dagan soil, kaolinite clay, and montmorillonite clay, was weighed, and added to a separate glass vial (partitioning vessel). (ETM) Control solutions remained absent of any geological matter. […]
(§7) The ‘adsorption mode’ analytical samples were then analyzed by the above described (UV/VIS) absorption spectrometry procedure, for determining the quantity (concentration) of the [TBSP-Ni], hematoporphyrin-Cobalt, and vitamin B12, electron transfer mediator (ETM), present (i.e., remaining) in the aqueous (liquid) phase of each respective electron transfer mediator (ETM)—geological matter (soil or clay) aqueous mixture. […]

[4] = as above; assay type: physicochemical; conditions: Kaolinite clay, room temperature; for Adsorption (%) of (ETM) after 10 days: aqueous mixture; for Desorption (%) of (ETM) after 10 days: fresh water replaced
Protocol: Kaolinite clay, ‘purum, natural’ grade, was obtained from Fluka.
as §1, §2, §3, §4, §5, §6
as §7, with “mixture. Such analysis and determination corresponded to quantitatively measuring and determining the extent that the respective electron transfer mediator (ETM) left the aqueous (liquid) phase and ‘adsorbed’ onto the respective geological matter (soil or clay) (solid) phase. The (ETM) Control solutions were similarly analyzed.” for “mixture.”

[5] = as above; assay type: physicochemical; conditions: Montmorillonite clay, room temperature; for Adsorption (%) of (ETM) after 10 days: aqueous mixture; for Desorption (%) of (ETM) after 10 days: fresh water replaced
Protocol: Montmorillonite clay, 10-12% impurities, was obtained from Fluka.
as §1, §2, §3, §4, §5, §6
as §7, with “mixture. Such analysis and determination corresponded to quantitatively measuring and determining the extent that the respective electron transfer mediator (ETM) left the aqueous (liquid) phase and ‘adsorbed’ onto the respective geological matter (soil or clay) (solid) phase. The (ETM) Control solutions were similarly analyzed.” for “mixture.”

[6] = USGS estimate; cited from earlier work

Compound	Normalized Endosulfan Concentration (%) α isomer [1] [%]	Normalized Endosulfan Concentration (%) β isomer [1] [%]	further results
Oc1ccc(-c2c3nc(c(-c4ccc(O)cc4)c4ccc([n-]4)c(-c4ccc(O)cc4)c4nc(c(-c5ccc(O)cc5)c5ccc2[n-]5)C=C4)C=C3)cc1.[Co+2] [[TP(OH)P—Co], tetrahydroxyphenylporphyrine-Cobalt [5,10,15,20-tetrakis(4-hydroxyphenyl)-21H,23H-porphine-Cobalt]]	8.3	12.3	
C[n+]1ccc(-c2c3nc(c(-c4cc[n+](C)cc4)c4ccc([n-]4)c(-c4cc[n+](C)cc4)c4nc(c(-c5cc[n+](C)cc5)c5ccc2[n-]5)C=C4)C=C3)cc1.[Co+2] [[TMPyP—Co], tetramethylpyridilporphyrin-Cobalt [5,10,15,20-tetrakis(1-methyl-4-pyridinio)-porphine-Cobalt]]	1.2	0.0	
Clc1ccc(C(c2ccc(Cl)cc2)C(Cl)(Cl)Cl)cc1 [DDT, DichloroDiphenylTrichloroethane]			partition coefficient, Kd, relative to aldicarb ([2]; ratio DDT / aldicarb): roughly 20,000 times; partition coefficient, Kd, relative to atrazine ([2]; ratio DDT / atrazine): ~1,500 times
O=S(=O)(O)c1ccc(-c2c3nc(c(-c4ccc(S(=O)(=O)O)cc4)c4ccc([nH]4)c(-c4ccc(S(=O)(=O)O)cc4)c4nc(c(-c5ccc(S(=O)(=O)O)cc5)c5ccc2[nH]5)C=C4)C=C3)cc1.[Ni] [[TBSP—Ni], 4,4′,4″,4′″-(porphine-5,10,15,20-tetrayl)tetrakis(benzenesulfonic acid)-Nickel]	1.3	0.0	Adsorption (%) of (ETM) after 10 days [3]: 71.68 ± 2.31%; Desorption (%) of (ETM) after 10 days [3]: 21.22 ± 2.55%; Adsorption (%) of (ETM) after 10 days [4]: 59.44 ± 1.21%; Desorption (%) of (ETM) after 10 days [4]: 40.17 ± 5.51%; Adsorption (%) of (ETM) after 10 days [5]: 95.50 ± 0.44%; Desorption (%) of (ETM) after 10 days [5]: 8.57 ± 1.28%
O=S(=O)(O)c1ccc(-c2c3nc(c(-c4ccc(S(=O)(=O)O)cc4)c4ccc([nH]4)c(-c4ccc(S(=O)(=O)O)cc4)c4nc(c(-c5ccc(S(=O)(=O)O)cc5)c5ccc2[nH]5)C=C4)C=C3)cc1.[Co] [[TBSP—Co], 4,4′,4″,4′″-(porphine-5,10,15,20-tetrayl)tetrakis(benzenesulfonic acid)-Cobalt]	2.8	0.0	
C[n+]1ccc(-c2c3nc(c(-c4cc[n+](C)cc4)c4ccc([n-]4)c(-c4cc[n+](C)cc4)c4nc(c(-c5cc[n+](C)cc5)c5ccc2[n-]5)C=C4)C=C3)cc1.[Ni+2] [[TMPyP—Ni], tetramethylpyridilporphyrin-Nickel [5,10,15,20-tetrakis(1-methyl-4-pyridinio)-porphine-Nickel]]	0.0	0.0	
C=Cc1c(C)c2cc3[nH]c(cc4nc(cc5nc(cc1[nH]2)C(C)=C5CCC(=O)[O-])C(CCC(=O)[O-])=C4C)c(C)c3C=C.[Co+2] [Protoporphyrin IX-Co, protoporphyrin IX-Cobalt]	31.5	37.8	
CCNc1nc(Cl)nc(NC(C)C)n1 [Atrazine, atrazine]			persistence in deep lakes [6]: exceed 10 years
hematoporphyrin-Cobalt	9.4	9.7	Adsorption (%) of (ETM) after 10 days [3]: 12.80 ± 1.2%; Desorption (%) of (ETM) after 10 days [3]: 5.87 ± 0.32%; Adsorption (%) of (ETM) after 10 days [4]: 45.28 ± 1.85%; Desorption (%) of (ETM) after 10 days [4]: 12.65 ± 0.67%; Adsorption (%) of (ETM) after 10 days [5]: 100%; Desorption (%) of (ETM) after 10 days [5]: 0%
C[n+]1ccc(-c2c3nc(c(-c4cc[n+](C)cc4)c4ccc([n-]4)c(-c4cc[n+](C)cc4)c4nc(c(-c5cc[n+](C)cc5)c5ccc2[n-]5)C=C4)C=C3)cc1.[Fe+2] [[TMPyP—Fe], tetramethylpyridilporphyrin-Iron [5,10,15,20-tetrakis(1-methyl-4-pyridinio)-porphine-Iron]]	40.7	66.7	
Oc1ccc(-c2c3nc(c(-c4ccc(O)cc4)c4ccc([n-]4)c(-c4ccc(O)cc4)c4nc(c(-c5ccc(O)cc5)c5ccc2[n-]5)C=C4)C=C3)cc1.[Ni+2] [[TP(OH)P—Ni], tetrahydroxyphenylporphyrine-Nickel [5,10,15,20-tetrakis(4-hydroxyphenyl)-21H,23H-porphine-Nickel]]	8.3	9.3	

Source: patent US8580711B2, “Decreasing or preventing sub-surface geological matter contamination by agrochemicals” (Yeda Research and Development Co. Ltd., priority 2005, dated 2013)
